# Tested on: carrageenan foot pad edema
# Assay: carrageenan foot pad edema test
# Format: in vivo
# Conditions: Wistar rats, dose 30 mg/kg by oral gavage 1 h before carrageenan; for % Inhibition of paw edema 1 hour: 1 hour after carrageenan injection; for % Inhibition of paw edema 3 hour: 3 hour after carrageenan injection
# Excerpt: The compounds of the present invention have been tested for their biological activities by carrageenan foot pad edema test in male as well as female Wistar rats according to standard protocol described in literature (Winter et. al, Proc. Soc. Exp. Biol. Med., 111, 544, (1962); Otterness and Bliven, Laboratory Models for Testing NSAIDS, in Non-Steroidal Anti-inflammatory Drugs, (J. Lombardino, ed. 1985)). The protocol followed was as described below:
# Wistar rats obtained from the Experimental Animal Facility of Zydus Research. Centre. Animals were housed in an environmentally controlled rooms with food and water available ad-libitum. All the experimental protocols were approved by the Institutional Animal Ethics Committee. Animals were divided into different groups, each group comprising of five-six animals. After an overnight fast, animals of the control group received vehicle only by oral gavage whereas animals of the other groups received different doses of the test substance(s). Each rat received same volume of the formulation i.e. 2 ml/kg on body weight basis. One hour after administration of the vehicle or test substance, all the animals received sub-planter injection of carrageenan (1% w/v in saline). Paw volume was measured at 0, 1, 3 and 5 hour after carrageenan injection. Anti-inflammatory activity, expressed as % Inhibition in paw swelling was calculated by measuring change in paw volume at different time intervals after carrageenan injection vs corresponding 0 hr values using the following formula.
# [formula] Where • PVC=Average change in Paw volume of control animals • PVT=Average change in Paw volume of treated animals.
Molecule,% Inhibition of paw edema 1 hour [%],% Inhibition of paw edema 3 hour [%]
3-(4-Methoxyphenyl)-5-methyl-4-(4-methylsulfoximinylphenyl)-isoxazole [Compound 154],46,47
3-(4-Methylphenyl)-4-(3-fluoro-4-methylsulfoximinylphenyl-5H-furan-2-one [Compound 112],57,40
"5-Chloro-3-(4-methylsulfoximinylphenyl)-[2,3′]bipyridinyl [Compound 97]",13,36
5-methyl-4-(4-methylsulfoximinylphenyl)-3-phenyl-isoxazole [Compound 153],42,43
"Cc1ccc(-c2cc(C(F)(F)F)nn2-c2ccc(S(N)(=O)=O)cc2)cc1 [Celecoxib, reference compound]",33,26
